Where two headings read alike, the source gives them in different places.
Key:
[1] = target: T1, hM5 (human Muscarinic receptor subtype 5) (Homo sapiens, UniProt P08912); test: Human M5 calcium mobilization FLIPR assay; format: cell-based; conditions: hM5 expressed in CHO cells, intracellular Ca2+ release
T1 construct: expressed in transfected cells; host or cells: CHO cells (Chinese hamster ovary cells, ATCC)
T1 sequence (P08912 1-532): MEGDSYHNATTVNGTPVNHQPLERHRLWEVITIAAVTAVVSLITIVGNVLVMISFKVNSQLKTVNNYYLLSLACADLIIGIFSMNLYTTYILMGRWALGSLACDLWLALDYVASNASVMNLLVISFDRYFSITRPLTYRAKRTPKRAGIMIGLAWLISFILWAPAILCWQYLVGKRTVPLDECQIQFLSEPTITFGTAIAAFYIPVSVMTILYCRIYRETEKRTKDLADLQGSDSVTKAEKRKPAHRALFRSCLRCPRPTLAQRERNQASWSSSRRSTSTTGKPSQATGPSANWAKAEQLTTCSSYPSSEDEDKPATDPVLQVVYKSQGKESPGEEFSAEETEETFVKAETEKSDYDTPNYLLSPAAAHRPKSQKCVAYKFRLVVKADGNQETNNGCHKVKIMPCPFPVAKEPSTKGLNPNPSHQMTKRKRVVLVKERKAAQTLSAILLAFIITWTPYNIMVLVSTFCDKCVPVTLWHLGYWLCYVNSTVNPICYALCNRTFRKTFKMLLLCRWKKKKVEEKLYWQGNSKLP
Procedure: (§1) Human M1, rat M1, human M3 and human M5 Calcium Mobilization FLIPR™ Assay
(§2) The compound activity in the present invention (EC50 or IC50) is measured using a 384 plate-based imaging assay that monitors drug induced intracellular Ca^2+ release in whole cells. Activation of hM1 (human Muscarinic receptor subtype 1, gene bank access NM_000738), rM1 (rat Muscarinic receptor subtype 1, gene bank access NM_080773), hM3 (human Muscarinic receptor subtype 3, gene bank access NM_000740NM_000740) and hM5 (human Muscarinic receptor subtype 5, gene bank access NM_0121258), receptors expressed in CHO cells (Chinese hamster ovary cells, ATCC) is quantified in a Molecular Devices FLIPR II™ instrument as an increase in fluorescent signal. Inhibition of hM3 and hM5 by compounds is determined by the decrease in fluorescent signal in response to 2 nM acetylcholine activation.
(§3) Prior to experiment, the cell culture medium is removed from the plates by inversion. […] Plates are incubated at 37° C. for 60 minutes prior to start the experiment. The incubation is terminated by washing the cells four times in assay buffer, leaving a residual 25 μl buffer per well. Cell plates are then transferred to the FLIPR, ready for compound additions.
(§4) The day of experiment, acetylcholine and compounds are diluted in assay buffer in three-fold concentration range (10 points serial dilution) for addition by FLIPR instrument. For all calcium assays, a baseline reading is taken for 10 seconds followed by the addition of 12.5 μl of compounds, resulting in a total well volume of 37.5 μl. Data is collected every second for 60 pictures and then every 6 seconds for 20 pictures prior to the addition of agonist. For hM3 and hM5, before agonist addition, a second baseline reading is taken for 10 seconds followed by the addition of 12.5 μl of agonist or buffer, producing a final volume of 50 μl. After agonist stimulation, the FLIPR continues to collect data every second for 60 pictures and then every 6 seconds for 20 pictures. The fluorescence emission is read using filter 1 (emission 510-570 nm) by the FLIPR on board CCD camera.
(§5) Calcium mobilization output data are calculated as the maximal relative fluorescence unit (RFU) minus the minimal value for both compound and agonist reading frame (except for hM1 and rM1 using only the maximal RFU). Data are analyzed using sigmoidal fits of a non-linear curve-fitting program (XLfit version 4.2.2 Excel add-in version 4.2.2 build 18 math 1Q version 2.1.2 build 18). All pEC50 and plC50 values are reported as arithmetic means ±standard error of mean of ‘n’ independent experiments.

[2] = target: T2, hM3 (human Muscarinic receptor subtype 3) (Homo sapiens, UniProt P20309); test: Human M3 calcium mobilization FLIPR assay; format: cell-based; conditions: hM3 expressed in CHO cells, intracellular Ca2+ release
T2 construct: expressed in transfected cells; host or cells: CHO cells (Chinese hamster ovary cells, ATCC)
Procedure: as §1, §2, §3, §4, §5

T2 sequence (P20309 whole entry): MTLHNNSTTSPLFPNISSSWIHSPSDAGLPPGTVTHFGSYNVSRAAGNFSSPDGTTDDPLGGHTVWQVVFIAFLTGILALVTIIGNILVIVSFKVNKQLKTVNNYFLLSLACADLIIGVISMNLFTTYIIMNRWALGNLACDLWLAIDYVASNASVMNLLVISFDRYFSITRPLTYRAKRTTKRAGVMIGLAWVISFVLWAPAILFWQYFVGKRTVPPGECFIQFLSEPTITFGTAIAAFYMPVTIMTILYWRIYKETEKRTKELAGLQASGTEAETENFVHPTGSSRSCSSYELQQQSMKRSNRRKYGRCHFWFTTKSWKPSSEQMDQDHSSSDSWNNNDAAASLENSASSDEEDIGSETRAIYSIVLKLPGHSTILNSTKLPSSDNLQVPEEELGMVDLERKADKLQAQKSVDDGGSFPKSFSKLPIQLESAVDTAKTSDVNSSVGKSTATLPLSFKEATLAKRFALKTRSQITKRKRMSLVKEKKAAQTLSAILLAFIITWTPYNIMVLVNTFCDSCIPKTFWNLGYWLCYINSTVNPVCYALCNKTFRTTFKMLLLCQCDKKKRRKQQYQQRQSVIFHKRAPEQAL

| SMILES | EC50 ([1]; read-out: hM5 EC50) [nM] | EC50 ([2]; read-out: hM3 EC50) [nM] | EC50 ([1]; hM5 EC50 (nM)) [nM] | EC50 ([2]; hM3 EC50 (nM)) [nM] |
| --- | --- | --- | --- | --- |
| CC1(N2CCC(n3c(=O)[nH]c4cc(F)c(F)cc43)CC2)CCN(C(=O)OCCF)C1 (single isomer, unassigned) [Example 61, 2-fluoroethyl 3-(4-(5,6-difluoro-2-oxo-2,3-dihydro-1H-benzo[d]imidazol-1-yl)piperidin-1-yl)-3-methylpyrrolidine-1-carboxylate] | > 2710 | > 40000 |  |  |
| COC(=O)N1CCC(C)(N2CCC(N3C(=O)Cc4ccc(C)cc43)CC2)C1 (single isomer, unassigned) [Example 67, methyl 3-methyl-3-(4-(6-methyl-2-oxoindolin-1-yl)piperidin-1-yl)pyrrolidine-1-carboxylate] | > 6710 | > 33500 |  |  |
| COC(=O)N1CCC(C)(N2CCC(N3C(=O)Cc4ccc(C)cc43)CC2)C1 (single isomer, unassigned) [Example 68, methyl 3-methyl-3-(4-(6-methyl-2-oxoindolin-1-yl)piperidin-1-yl)pyrrolidine-1-carboxylate] | > 4080 | 2330 |  |  |
| CCOC(=O)N1CCC(C)(N2CCC(N3C(=O)Cc4ccc(C)cc43)CC2)C1 (single isomer, unassigned) [Example 69, ethyl 3-methyl-3-(4-(6-methyl-2-oxoindolin-1-yl)piperidin-1-yl)pyrrolidine-1-carboxylate] | 1370 | > 40000 |  |  |
| CCOC(=O)N1CCC(C)(N2CCC(N3C(=O)Cc4ccccc43)CC2)C1 (single isomer, unassigned) [Example 72, ethyl 3-methyl-3-(4-(2-oxoindolin-1-yl)piperidin-1-yl)pyrrolidine-1-carboxylate] | > 40000 | > 40000 |  |  |
| CCOC(=O)N1CCC(C)(N2CCC(N3C(=O)Cc4ccccc43)CC2)C1 (single isomer, unassigned) [Example 73, ethyl 3-methyl-3-(4-(2-oxoindolin-1-yl)piperidin-1-yl)pyrrolidine-1-carboxylate] | > 40000 | > 40000 |  |  |
| CCOC(=O)N1CCC(C)(N2CCC(N3C(=O)Cc4ccc(F)cc43)CC2)C1 (single isomer, unassigned) [Example 74, ethyl 3-(4-(6-fluoro-2-oxoindolin-1-yl)piperidin-1-yl)-3-methylpyrrolidine-1-carboxylate] | > 21200 | > 40000 |  |  |
| CCOC(=O)N1CCC(C)(N2CCC(N3C(=O)Cc4ccc(F)cc43)CC2)C1 (single isomer, unassigned) [Example 75, ethyl 3-(4-(6-fluoro-2-oxoindolin-1-yl)piperidin-1-yl)-3-methylpyrrolidine-1-carboxylate] | > 27000 | > 40000 |  |  |
| CCOC(=O)N1CCC(C)(N2CCC(N3C(=O)Cc4cc(F)ccc43)CC2)C1 (single isomer, unassigned) [Example 79, ethyl 3-(4-(5-fluoro-2-oxoindolin-1-yl)piperidin-1-yl)-3-methylpyrrolidine-1-carboxylate] | 2540 | > 40000 |  |  |
| CCOC(=O)N1CCC(C)(N2CCC(N3C(=O)Cc4cc(F)c(C)cc43)CC2)C1 (single isomer, unassigned) [Example 81, ethyl 3-(4-(5-fluoro-6-methyl-2-oxoindolin-1-yl)piperidin-1-yl)-3-methylpyrrolidine-1-carboxylate] | 1240 | > 13300 |  |  |
| COC(=O)N1CCC(C)(N2CCC(N3C(=O)Cc4cc(F)c(C)cc43)CC2)C1 (single isomer, unassigned) [Example 83, methyl 3-(4-(5-fluoro-6-methyl-2-oxoindolin-1-yl)piperidin-1-yl)-3-methylpyrrolidine-1-carboxylate] |  |  | 3560 | > 18400 |
| CCOC(=O)N1CCC(C)(N2CCC(n3c(=O)[nH]c4ccccc43)CC2)C1 (stereo not shown) [Example 1, ethyl 3-methyl-3-(4-(2-oxo-2,3-dihydro-1H-benzo[d]imidazol-1-yl)piperidin-1-yl)pyrrolidine-1-carboxylate] | 136 | 1400 |  |  |
| CCNC(=O)N1CCC(C)(N2CCC(n3c(=O)[nH]c4ccccc43)CC2)C1 (stereo not shown) [Example 5, N-ethyl-3-methyl-3-(4-(2-oxo-2,3-dihydro-1H-benzo[d]imidazol-1-yl)piperidin-1-yl)pyrrolidine-1-carboxamide] | > 2960 | > 40000 |  |  |
| CC1(N2CCC(n3c(=O)[nH]c4cc(F)ccc43)CC2)CCN(C(=O)OCCF)C1 (stereo not shown) [Example 10, 2-fluoroethyl 3-(4-(5-fluoro-2-oxo-2,3-dihydro-1H-benzo[d]imidazol-1-yl)piperidin-1-yl)-3-methylpyrrolidine-1-carboxylate] | 537 | > 40000 |  |  |

Source: patent US20090221642A1, “MUSCARINIC RECEPTOR AGONISTS, COMPOSITIONS, METHODS OF TREATMENT THEREOF, AND PROCESSES FOR PREPARATION THEREOF-176” (AstraZeneca AB, priority 2008, published 2009)
